Data published in PubChem BioAssay AID330 (DTP/NCI, 2004).
“And” between values parts separate entries of the source, which are not always exact repeats. Equal entries are not always repeated. Toxic doses and inconclusive results are not listed. The calls were made as follows: active = survival T/C of 150% or more; inactive = T/C below 125% in these data.

Test system: P388 leukemia ip, CD2F1 mice, survival T/C
Test: NCI In Vivo Anticancer Drug Screen. Data for tumor model P388 Leukemia (intraperitoneal) in CD2F1 (CDF1) mice
Details: endpoint: median survival time, higher = longer survival
Procedure, shortened: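 Mice carrying the transplanted tumor received test compound or vehicle. Survival was recorded in each group, and the value is the treated-group measurement divided by that of the vehicle-treated control group.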

[1] = dose: 25.0 mg/kg/injection, schedule: Q01DX005 (ip), vehicle: saline with Tween-80
[2] = dose: 6.25 mg/kg/injection, schedule: Q01DX009 (ip), vehicle: saline
[3] = dose: 12.5 mg/kg/injection, schedule: Q01DX009 (ip), vehicle: saline
[4] = dose: 25.0 mg/kg/injection, schedule: Q01DX009 (ip), vehicle: saline
[5] = dose: 50.0 mg/kg/injection, schedule: Q01DX009 (ip), vehicle: saline with Tween-80
[6] = dose: 100.0 mg/kg/injection, schedule: Q01DX009 (ip), vehicle: saline with Tween-80
[7] = dose: 60.0 mg/kg/injection, schedule: Q01DX005 (ip), vehicle: saline with Tween-80
[8] = dose: 12.5 mg/kg/injection, schedule: Q01DX009 (ip), vehicle: Klucel (hydroxypropylcellulose) (HPC)
[9] = dose: 100.0 mg/kg/injection, schedule: Q01DX009 (ip), vehicle: Klucel (hydroxypropylcellulose) (HPC)
[10] = dose: 200.0 mg/kg/injection, schedule: Q01DX009 (ip), vehicle: saline with Tween-80
[11] = dose: 50.0 mg/kg/injection, schedule: Q01DX005 (ip), vehicle: saline with Tween-80
[12] = dose: 50.0 mg/kg/injection, schedule: Q01DX005 (ip), vehicle: Klucel (hydroxypropylcellulose) (HPC)
[13] = dose: 100.0 mg/kg/injection, schedule: Q01DX005 (ip), vehicle: Klucel (hydroxypropylcellulose) (HPC)
[14] = dose: 200.0 mg/kg/injection, schedule: Q01DX005 (ip), vehicle: Klucel (hydroxypropylcellulose) (HPC)
[15] = dose: 100.0 mg/kg/injection, schedule: Q01DX005 (ip), vehicle: saline with Tween-80
[16] = dose: 200.0 mg/kg/injection, schedule: Q01DX005 (ip), vehicle: saline with Tween-80
[17] = dose: 25.0 mg/kg/injection, schedule: Q01DX009 (ip), vehicle: Klucel (hydroxypropylcellulose) (HPC)
[18] = dose: 50.0 mg/kg/injection, schedule: Q01DX009 (ip), vehicle: Klucel (hydroxypropylcellulose) (HPC)
[19] = dose: 200.0 mg/kg/injection, schedule: Q01DX009 (ip), vehicle: Klucel (hydroxypropylcellulose) (HPC)

Measured: T/C

COc1cc(C(=O)Nc2ccc(NC3=NCCN3)cc2)cc(C(=O)Nc2ccc(NC3=NCCN3)cc2)c1
inactive: dose: 6.25 mg/kg/injection, schedule: Q01DX005 (ip), vehicle: saline with Tween-80 102 % of control | dose: 12.5 mg/kg/injection, schedule: Q01DX005 (ip), vehicle: saline with Tween-80 106 % of control | [1] 115 % of control

COC(=O)c1[nH]c(=O)c2cccnc2c1O
inactive: [2] 104 % of control | [3] 100 % of control | [4] 92 % of control | [5] 103 % of control | [6] 98 % of control

CCCN(CCC)CCN1C(=O)NC(C)(c2ccccc2)C1=O (centres undefined)
inactive: dose: 7.5 mg/kg/injection, schedule: Q01DX005 (ip), vehicle: saline with Tween-80 100 % of control | dose: 15.0 mg/kg/injection, schedule: Q01DX005 (ip), vehicle: saline with Tween-80 101 % of control and 97 % of control | dose: 30.0 mg/kg/injection, schedule: Q01DX005 (ip), vehicle: saline with Tween-80 99 % of control and 103 % of control | [7] 101 % of control and 94 % of control and 97 % of control

CC(OC(=O)Nc1cccc2ccccc12)C(N)=O (centres undefined)
inactive: dose: 100.0 mg/kg/injection, schedule: Q04DX003 (ip), vehicle: Klucel (hydroxypropylcellulose) (HPC) 91 % of control | dose: 200.0 mg/kg/injection, schedule: Q04DX003 (ip), vehicle: Klucel (hydroxypropylcellulose) (HPC) 95 % of control | dose: 400.0 mg/kg/injection, schedule: Q04DX003 (ip), vehicle: Klucel (hydroxypropylcellulose) (HPC) 96 % of control

OCC1OC(n2c(Cl)nc3ccccc32)C(O)C1O (centres undefined)
inactive: dose: 60.0 mg/kg/injection, schedule: Q01DX005 (ip), vehicle: saline 100 % of control | dose: 120.0 mg/kg/injection, schedule: Q01DX005 (ip), vehicle: saline 103 % of control | dose: 240.0 mg/kg/injection, schedule: Q01DX005 (ip), vehicle: saline 98 % of control

CCCNC(=O)OCC1=C(COC(=O)NCCC)C2OC1C(C(=O)OC)=C2C(=O)OC
inactive: dose: 12.5 mg/kg/injection, schedule: Q01DX009 (ip), vehicle: distilled water + Tween-80 89 % of control | dose: 25.0 mg/kg/injection, schedule: Q01DX009 (ip), vehicle: distilled water + Tween-80 93 % of control | dose: 50.0 mg/kg/injection, schedule: Q01DX009 (ip), vehicle: distilled water + Tween-80 86 % of control

C=C1C(=O)OC2/C=C(\CO)C(OC(C)=O)CC(O)/C(C)=C/C(OC(=O)C(C)CC)C12 (centres undefined)
inactive: dose: 6.25 mg/kg/injection, schedule: Q01DX009 (ip), vehicle: Klucel (hydroxypropylcellulose) (HPC) 111 % of control | [8] 119 % of control | [9] 121 % of control

CN1NC(c2ccc(N(C)C)cc2)(c2ccc(N(C)C)cc2)c2ccc(N(C)C)cc2C1=O
inactive: dose: 100.0 mg/kg/injection, schedule: Q04DX002 (ip), vehicle: saline with Tween-80 90 % of control | dose: 200.0 mg/kg/injection, schedule: Q04DX002 (ip), vehicle: saline with Tween-80 88 % of control | dose: 400.0 mg/kg/injection, schedule: Q04DX002 (ip), vehicle: saline with Tween-80 88 % of control

CCCCCCCCCCCCCCC(O)C(=O)O (centres undefined)
inactive: [10] 89 % of control

O=NN(c1ccccc1)c1ccc([N+](=O)[O-])cc1
inactive: [5] 90 % of control | [6] 90 % of control

COC1=CC(=O)C(c2cc(O)c(OC)cc2O)=CC1=O
inactive: dose: 12.0 mg/kg/injection, schedule: Q01DX005 (ip), vehicle: saline with Tween-80 114 % of control | [1] 108 % of control | [11] 99 % of control

C=C1CC2(CC[N+](Cc3ccccc3)(Cc3ccccc3)CC2)OC1=O
inactive: dose: 12.5 mg/kg/injection, schedule: Q01DX005 (ip), vehicle: saline 103 % of control | dose: 25.0 mg/kg/injection, schedule: Q01DX005 (ip), vehicle: saline 103 % of control | dose: 50.0 mg/kg/injection, schedule: Q01DX005 (ip), vehicle: saline 102 % of control and 97 % of control

COc1ccc2c(c1)C(O)NC(=O)O2 (centres undefined)
inactive: [12] 98 % of control | [13] 103 % of control | [14] 119 % of control

CCCCCCCCCCCCCCCC[N+](C)(CCO)Cc1cnc[nH]1 (centres undefined)
inactive: dose: 1.56 mg/kg/injection, schedule: Q01DX009 (ip), vehicle: saline 110 % of control | dose: 3.12 mg/kg/injection, schedule: Q01DX009 (ip), vehicle: saline 111 % of control | [2] 118 % of control

NC(N)=NC(=O)COc1ccc(Cl)cc1Cl
inactive: [7] 97 % of control | dose: 120.0 mg/kg/injection, schedule: Q01DX005 (ip), vehicle: saline with Tween-80 103 % of control | dose: 240.0 mg/kg/injection, schedule: Q01DX005 (ip), vehicle: saline with Tween-80 114 % of control

Cc1ccc(C)c(C[n+]2ccccc2C2(C)OCCO2)c1
inactive: [11] 101 % of control | [15] 103 % of control | [16] 100 % of control

O=C1OC(c2ccccc2)N(c2ccccc2)C(=O)C1Cc1ccccc1 (centres undefined)
inactive: dose: 60.0 mg/kg/injection, schedule: Q01DX005 (ip), vehicle: Klucel (hydroxypropylcellulose) (HPC) 103 % of control | dose: 120.0 mg/kg/injection, schedule: Q01DX005 (ip), vehicle: Klucel (hydroxypropylcellulose) (HPC) 98 % of control | dose: 240.0 mg/kg/injection, schedule: Q01DX005 (ip), vehicle: Klucel (hydroxypropylcellulose) (HPC) 110 % of control

N#CC(C#N)=C1Cc2ccccc2C1
inactive: dose: 25.0 mg/kg/injection, schedule: Q01DX001 (ip), vehicle: saline with Tween-80 109 % of control | dose: 50.0 mg/kg/injection, schedule: Q01DX001 (ip), vehicle: saline with Tween-80 100 % of control

CC1N/C(=C/c2ccccc2)C(=O)O1 (centres undefined)
inactive: dose: 25.0 mg/kg/injection, schedule: Q01DX009 (ip), vehicle: saline with Tween-80 106 % of control | [5] 110 % of control | [6] 105 % of control and 123 % of control | [10] 117 % of control and 96 % of control

CCCCCCCCCCCCNC(=O)NCC(=O)OCC
inactive: [17] 91 % of control | [18] 100 % of control | [9] 103 % of control | [19] 89 % of control

CCOC(=O)C1(NC(=O)Nc2ccccc2)CCCCC1
inactive: [12] 100 % of control | [13] 98 % of control | [14] 104 % of control

Nc1nc(N)c(CCc2ccccc2)c(N)n1
inactive: dose: 12.5 mg/kg/injection, schedule: Q01DX005 (ip), vehicle: Klucel (hydroxypropylcellulose) (HPC) 97 % of control | dose: 25.0 mg/kg/injection, schedule: Q01DX005 (ip), vehicle: Klucel (hydroxypropylcellulose) (HPC) 103 % of control | [12] 92 % of control and 97 % of control

COc1cc(/C=C/C(=O)c2ccccc2O)cc(OC)c1OC
inactive: [11] 97 % of control | [15] 110 % of control | [16] 97 % of control

CCN(CC)CCCOC(=O)c1ccc(N)cc1
inactive: [3] 100 % of control | dose: 12.5 mg/kg/injection, schedule: Q04DX003 (ip), vehicle: saline 91 % of control | [4] 109 % of control | dose: 25.0 mg/kg/injection, schedule: Q04DX003 (ip), vehicle: saline 91 % of control | dose: 50.0 mg/kg/injection, schedule: Q01DX009 (ip), vehicle: saline 104 % of control | dose: 50.0 mg/kg/injection, schedule: Q04DX003 (ip), vehicle: saline 87 % of control

O=C1c2ccccc2CC12OC2c1ccncc1 (centres undefined)
inactive: dose: 100.0 mg/kg/injection, schedule: Q04DX002 (ip), vehicle: Klucel (hydroxypropylcellulose) (HPC) 104 % of control | dose: 200.0 mg/kg/injection, schedule: Q04DX002 (ip), vehicle: Klucel (hydroxypropylcellulose) (HPC) 100 % of control | dose: 400.0 mg/kg/injection, schedule: Q04DX002 (ip), vehicle: Klucel (hydroxypropylcellulose) (HPC) 106 % of control

NC(=O)c1ncn(C2OC(CO)C(O)C2O)c1O (centres undefined)
inactive: [8] 107 % of control | [17] 113 % of control | [18] 115 % of control | [9] 113 % of control | [19] 96 % of control
